One may read the inhibition as the share of the control response that was lost under treatment. A low value points to little suppression.

These results are taken from US4603144A, “Kojic acid ether-ester derivatives” (G. D. Searle & Co., priority 1984, dated 1986).

The test concerns the target T1, Human Leukocyte Elastase (HLE) (Homo sapiens, UniProt P08246).
T1 sequence (P08246 30-267): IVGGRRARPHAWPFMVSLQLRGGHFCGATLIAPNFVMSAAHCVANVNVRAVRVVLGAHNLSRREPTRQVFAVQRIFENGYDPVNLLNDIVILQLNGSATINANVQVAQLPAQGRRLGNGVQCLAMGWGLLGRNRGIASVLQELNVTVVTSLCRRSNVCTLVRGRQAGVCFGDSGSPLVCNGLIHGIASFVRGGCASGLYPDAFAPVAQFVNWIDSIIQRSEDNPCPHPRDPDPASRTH
Put plainly: Inhibition of Human Leukocyte Elastase (HLE); hydrolysis of Methoxy-succinyl-Alanyl-Alanyl-Prolyl-Valyl-nitroanilide. Format: biochemical. As to conditions: for inhibition at 20 µM: 2.0 × 10^-5 Molar; for inhibition at 10 µM: 1.0 × 10^-5 Molar; for inhibition at 0.2 µM: 2.0 × 10^-7 Molar; for inhibition at 0.05 µM: 5.0 × 10^-8 Molar; for inhibition at 1 µM: 1.0 × 10^-6 Molar; for inhibition at 5 µM: 5.0 × 10^-6 Molar. The method, then:
Inhibition of Human Leukocyte Elastase (HLE)
This test measures the rate of hydrolysis of Methoxy-succinyl-Alanyl-Alanyl-Prolyl-Valyl-nitroanilide by HLE in the presence and absence of the compound to be tested. The procedure used is as follows. The following stock solutions are prepared.
1. a saline solution of HLE prepared from a composition containing 10% HLE with the remainder being sodium acetate (300 micrograms per ml) wherein the concentration was adjusted to give a change in absorption of 0.12 od units per minute in the assay in the absence derivative,
2. a dimethylsulfoxide solution of the nitroanilide peptide (2m mole),
3. tris-HCl buffer (0.2M,pH 8.0) and
4. a dimethylsulfoxide solution of the derivative to be tested at 20 times the desired final concentration.
The test hydrolysis solution was then prepared by adding 850 microliters buffer, 50 microliters derivative solution, 50 microliters peptide solution to a 1 cm. semi-micro cuvette. The cuvette was capped, slightly shaken and placed in the light chamber of a recording colorimeter where the increase in absorption at 410 nm. due to liberated nitroaniline was measured. Using this procedure, the one minute change in absorption of the test sample containing derivative was compared to the change in absorption in the absence of derivative. A 20% or more decrease in the rate of absorption was interpreted as a positive inhibition.

On to `CCCCCCCCCCCCCCCCCCOCc1cc(=O)c(OCc2ccccc2)co1` [Example 11, 2-[(octadecyloxy)methyl]-5-(phenylmethoxy)-4Hpyran-4-one], for which the inhibition at 20 µM was 24%.
With `CCCCCCCCCCCCCCOCc1cc(=O)c(O)co1` [Example 12, 5-hydroxy-2-[(tetradecyloxy)methyl]-4Hpyran-4-one], testing at 10 µM gave an inhibition of 34% and the inhibition at 20 µM came to 48%.
Turning to `CCCCCCCCCCCCCCCCOCc1cc(=O)c(O)co1` [Example 13, 5-hydroxy-2-[(hexadecyloxy)methyl]-4Hpyran-4-one], the inhibition at 20 µM is 23%.
The molecule `CCCCCCCCCCCCCCCCCCOCc1cc(=O)c(O)co1` [Example 14, 5-hydroxy-2-[(octadecyloxy)methyl]-4Hpyran-4-one] returned an inhibition at 10 µM of 46% and an inhibition at 20 µM of 50%.
`CCCCCCCCCCCCCCOCc1cc(=O)c(OC(=O)C(C)(C)C)co1` [Example 15, 4-oxo-2-[(tetradecyloxy)methyl]-4H pyran-5-yl-2,2-dimethylpropanoate] yielded an inhibition at 10 µM of 81%, an inhibition at 20 µM of 88%, an inhibition at 0.2 µM of 60% and an inhibition at 0.05 µM of 38%.
`CCCCCCCCCCCCCCCCOCc1cc(=O)c(OC(=O)C(C)(C)C)co1` [Example 16, 2-[(hexadecyloxy)methyl]-4-oxo-4H pyran-5-yl-2,2-dimethylpropanoate] gave an inhibition at 10 µM of 87%, an inhibition at 1 µM of 69%, an inhibition at 20 µM of 89% and an inhibition at 0.2 µM of 52%. The molecule also had an inhibition at 0.05 µM of 27%.
As for `CCCCCCCCCCCCCCCCOCc1cc(=O)c(OC(=O)C(C)C)co1` [Example 17, 2-[(hexadecyloxy)methyl]-4-oxo-4H pyran-5-yl-2-methylpropanoate], 1 µM produced 88% inhibition, testing at 0.2 µM gave an inhibition of 81% and the inhibition at 0.05 µM was 61%.
For `CCCCCCCCCCCCCCCCOCc1cc(=O)c(OC(=O)C(C)C(C)C)co1` (centres unmarked) [Example 18, 2-[(hexadecyloxy)methyl]-4-oxo-4H pyran-5-yl-2,3-dimethylbutanoate], the inhibition at 10 µM was found to be 48% and testing at 20 µM gave an inhibition of 59%.
On the same counts, the results for `CCCCCCCCCCCCCCCCOCc1cc(=O)c(OC(=O)CC(C)C)co1` [Example 19, 2-[(hexadecyloxy)methyl]-4-oxo-4H pyran-5-yl-3-methylbutansate] are 52% and 67%.
The molecule `CCCCCCCCCCCCCCCCCCOCc1cc(=O)c(OC(=O)C(C)(C)C)co1` [Example 20, 2-[(octadecyloxy)methyl] -4-oxo-4Hpyran-5-yl-2,2-dimethylpropanoate] returned an inhibition at 10 µM of 73%, an inhibition at 20 µM of 66% and an inhibition at 5 µM of 69%.
Molecule `CCCCCCCCCCCCCCCCOc1coc(COC2CCCCO2)cc1=O` (centres unmarked) [Example 21, 5-Hexadecyloxy-2-tetrahydropyrany/oxymethyl-4H pyran-4-one] came in with an inhibition at 20 µM of 23%.
Regarding `CCCCCCCCCCCCCCCCOc1coc(COC(=O)C(C)(C)C)cc1=O` [Example 23, 5-Hexadecyloxy-4-oxo-4Hpyran-2-hydroxymethyl-2,2-dimethylpropanoate], at 10 µM the inhibition was 62%, the inhibition at 20 µM came out at 65% and the inhibition at 5 µM was 36%.
For `CCCCCCCCCCCCCCCCOc1coc(C(=O)O)cc1=O` [Example 24, 5-Hexadecyloxy-2-carboxyl-4Hpyran-4-one], in that order: 83%, 86% and 84%.
